Data from patent US20080206287A1, “Use of cyclosporin A to sensitize resistant cancer cells to death receptor ligands” (priority 2006, published 2008).
“Also recorded” adds a separate entry of the source.

Assays:
FAS or TRAIL receptors = experiment: Surface expression of death receptors by flow cytometry; format: cell-based; conditions: PPC-1 cells
Excerpt: Furthermore, since these compounds sensitize to both FAS and TRAIL, they presumably act distal to death receptors.

FLIP = FLIP protein immunoblot; format: cell-based, human; conditions: for levels of FLIP protein (long isoform): PPC-1 cells, with or without CH-11, 24 hours, immunoblot
Protocol: Immunoblot analysis. Protein extracts were obtained by washing cells with phosphate-buffered saline (PBS) [pH 7.4] and suspending the cells in lysis buffer [10 mM Tris (pH 7.4), 150 mM NaCl, 0.1% Triton X-100, 0.5% sodium deoxycholate, and 5 mM EDTA] containing protease inhibitors (Complete tablets; Roche, Indianapolis, Ind.). Immunoblot assays were performed as described in Carter et al. (Blood 105:4043-4050, 2005). Briefly, equal amounts of protein as determined by a Bradford assay (Bradford, Anal. Biochem. 72:248-54, 1976) were subjected to SDS-PAGE (4-20% gradient gels from ISC BioExpress, Kaysville, Utah), followed by transfer to nitrocellulose membranes. Membranes were incubated with mouse monoclonal anti-human FLIP (NF6 clone) (1:500 v/v) (Alexis, San Diego, Calif.), 1:1,000 (v/v) anti-aspase-8 clone 5F7 (Upstate) and mouse monoclonal anti-tubulin (1:2000 v/v) (Sigma Inc). Secondary antibodies consisted of horseradish peroxidase-conjugated goat anti-rabbit IgG or goat anti-mouse IgG (Bio-Rad, Hercules, Calif.). Detection was performed by the enhanced chemiluminescence method (Pierce, Rockford, Ill.).
Effects of sensitizing compounds on FLIP protein. Since FAS-sensitizing compounds 6094911 and 5809354 modulate the extrinsic pathway downstream of TNF-family death receptors but upstream of effector caspases, the effects of those compounds on expression of FLIP, an intracellular antiapoptotic protein that binds caspases-8 and -10 and is capable of suppressing death receptor signaling at a proximal point within the extrinsic pathway, was examined. For these experiments, PPC-1 cells were treated with sensitizing compounds in the presence or absence of CH-11 antibody, then cell lysates were prepared 24 hours later, and analyzed by immunoblotting for FLIP.
The levels of the short isoform of FLIP were less than 5% of total FLIP protein as measured by immunoblotting and quantitative densitometry. Therefore, given the very low levels of the short isoform, the analysis was limited to the effects of the compounds on the long isoform of FLIP.

FLIP mRNA = FLIP mRNA quantitative RT-PCR; format: cell-based; conditions: responding and non-responding cell lines
Protocol: Quantitative RT-PCR. The cDNAs encoding the long isoform of FLIPL and GAPDH were amplified using the following primer pairs: 5′-[…]-3′ (forward primer for FLIP; SEQ ID NO:1), 5′-[…]-3′ (reverse primer for FLIP; SEQ ID NO:2), 5′-GAAGGTGAAGGTCGGAGTC-3′ (forward primer for GAPDH; SEQ ID NO:3), and 5′-[…]-3′ (reverse primer for GAPDH; SEQ ID NO:4). Equal amounts of cDNA for each sample were added to a prepared master mix (SYBR Green PCR Master mix, Applied Biosystems, Foster City, Calif.). Real-time quantitative PCR reactions were performed on an ABI Prism 7700 sequence detection system (Applied Biosystems, Foster City, Calif., USA). The relative abundance of a transcript was represented by the threshold cycle of amplification (CT), which is inversely correlated to the amount of target RNA/first strand cDNA being amplified. To normalize for equal amounts of the latter, the transcript levels of the putative housekeeping gene GAPDH were assayed. The comparative CT method was calculated as per manufacturer's instructions. To normalize the CT of FLIP for each sample, the following ratio was calculated: CT(FLIP)/CT(GAPDH). The expression level of FLIP relative to the baseline level was calculated as 2^−ΔΔCT(FLIP), where ΔCT is (average FLIP CT-average GAPDH CT) and ΔΔCT is (average ΔCT untreated sample−average ACT treated sample.
To determine whether the reductions in FLIP protein occurred at the level of mRNA or protein, FLIP mRNA expression was measured by Quantitative RT-PCR in cells treated with 5809354 or buffer control.

PPC-1 cells = experiment: Apoptosis of PPC-1 cells transfected with CrmA or Bcl-XL; format: cell-based; conditions: for protection by Bcl-XL against apoptosis induced by CH-11 plus compound: PPC-1 cells transfected with Bcl-XL; for protection by CrmA against apoptosis induced by CH-11 plus compound: PPC-1 cells transfected with CrmA
Protocol: Cell transfections. PPC-1 cells (2×10^5) were seeded in 35 mm diameter plates in RPMI with 10% FCS. The next day the cells were co-transfected using Lipofectamine Plus (Invitrogen, Carlsbad, Calif.) with 0.5 μg GFP-encoding plasmid pEGFP (Invitrogen) in combination with […] of plasmids encoding Bcl-XL, the viral caspase-8 inhibitor Crm A, or empty vector. At 2 days post-transfection, cells were incubated with various concentrations of CH-11 antibody and the test compounds for 24 hours, then the percentage apoptosis was scored by UV-microscopic analysis of the GFP-positive cells, counting a minimum of 200 cells. Cells that had rounded up and were floating in the medium were counted as non-viable, while cells that remained adherent to the plate with normal morphological features were counted as viable.
To further address the specificity of the compounds for the extrinsic pathway, the effects of selective apoptosis inhibitory genes were examined. For these experiments, PPC-1 cells were transfected with plasmids encoding CrmA, a viral protein that blocks the extrinsic pathway by inhibiting caspase-8 (Zhou et al., J. Biol. Chem. 272:7797-7800, 1997) or encoding Bcl-xL, a mitochondria-targeting protein that blocks the intrinsic pathway by inhibiting release of cytochrome c (Boise et al., Cell 74:597-608, 1993; Kharbanda et al., Proc. Natl. Acad. Sci. USA 94:6939-6942, 1997). After transfection, cells were treated with CH-11 antibody and compounds 6094911, 5809354, or […] scoring the percentage of apoptotic cells among the successfully transfected cells as determined by co-transfection of a GFP-marker plasmid.

Row | Compound | surface expression of FAS or TRAIL receptors (FAS or TRAIL receptors) | levels of FLIP protein (long isoform) (FLIP) | FLIP mRNA expression (FLIP mRNA) | protection by Bcl-XL against apoptosis induced by CH-11 plus compound (PPC-1 cells) | protection by CrmA against apoptosis induced by CH-11 plus compound (PPC-1 cells) | levels of FLIP (FLIP; non-responding cell lines DU145 and MDA-MB-468)
1 | CC(=O)CC(=O)Nc1ccc(Cl)c(C(F)(F)F)c1 [compound 6094911, N-[4-chloro-3-(trifluoromethyl)phenyl]-3-oxobutanamide] | did not change | did not alter levels of FLIP protein | did not reduce FLIP mRNA | no protective effect | almost completely protected | 
2 | O=C(CCCOc1ccc(Cl)cc1Cl)NO [compound 5809354, 4-(2,4-dichlorophenoxy)-N-hydroxybutanamide] | did not change | decreased levels of FLIP protein | reduced expression of FLIP mRNA; also recorded: decreased FLIP mRNA | no protective effect | almost completely protected | decreased
3 | CCn1c(=N)n(CC(=O)c2cc(C(C)(C)C)c(O)c(C(C)(C)C)c2)c2ccccc21 [compound 5569100, 1-(3,5-Di-tert-butyl-4-hydroxy-phenyl)-2-(3-ethyl-2-imino-2,3-dihydro-benzoimidazol-1-yl)-ethanone] | did not change | decreased levels of FLIP protein; also recorded: reduced FLIP expression | did not reduce FLIP mRNA | no protective effect | almost completely protected | 
